Experimental data reported in US11661403B2, “Oxadiazole compounds” (Vivace Therapeutics, Inc., priority 2018, dated 2023).

Tested on: 8XTBD luciferase reporter (YAP) in HEK293T cells
Assay: YAP Reporter Assay
Assay type: cell-based
Conditions: Homo sapiens, HEK-293T, 24 h, read-out: Firefly Luciferase IC50 (μM)

Row | SMILES | IC50 [µM]
1 | O=C1N[C@@H](c2nnc(-c3ccccc3Nc3ccc(C(F)(F)F)cc3)o2)CO1 [Compound 77, (R)-4-(5-(2-((4-(trifluoromethyl)phenyl)amino)phenyl)-1,3,4-oxadiazol-2-yl)oxazolidin-2-one] | < 0.1

Same assay, conditions: Homo sapiens, HEK-293T; HEK293T cells stably transfected with 8XTBD luciferase reporter and pRLTK; 24-hr incubation; top concentration 3 μM; read-out: Firefly Luciferase IC50

Row | SMILES | IC50 [µM]
2 | CN(C#N)C(C)(C)Cc1nnc(-c2ccccc2Nc2ccc(C(F)(F)F)cc2)o1 [Compound 143, N-methyl-N-(2-methyl-1-(5-(2-((4-(trifluoromethyl)phenyl)amino)phenyl)-1,3,4-oxadiazol-2-yl)propan-2-yl)cyanamide] | 1 to 5
3 | CNC(C)c1nnc(-c2ccccc2Nc2ccc(C(F)(F)F)cc2)o1 (stereo not drawn) [Compound 159, 2-(5-(1-(methylamino)ethyl)-1,3,4-oxadiazol-2-yl)-N-(4-(trifluoromethyl)phenyl)aniline] | 0.1 to 1
4 | CC(CN(C)C#N)c1nnc(-c2ccccc2Nc2ccc(C(F)(F)F)cc2)o1 (stereo not drawn) [Compound 152, N-methyl-N-(2-(5-(2-((4-(trifluoromethyl)phenyl)amino)phenyl)-1,3,4-oxadiazol-2-yl)propyl)cyanamide] | < 0.1
5 | OC(CBr)c1nnc(-c2ccccc2Nc2ccc(C(F)(F)F)cc2)o1 (stereo not drawn) [Compound 121, 2-bromo-1-(5-(2-((4-(trifluoromethyl)phenyl)amino)phenyl)-1,3,4-oxadiazol-2-yl)ethan-1-ol] | < 0.1
6 | C[C@]1(c2nnc(-c3ccccc3Nc3ccc(C(F)(F)F)cc3)o2)CCNC1=O [Compound 76, (R)-3-methyl-3-(5-(2-((4-(trifluoromethyl)phenyl)amino)phenyl)-1,3,4-oxadiazol-2-yl)pyrrolidin-2-one] | < 0.1
7 | O=C1NCCN1c1nnc(-c2ccccc2Nc2ccc(C(F)(F)F)cc2)o1 [Compound 34, 1-(5-(2-((4-(trifluoromethyl)phenyl)amino)phenyl)-1,3,4-oxadiazol-2-yl)imidazolidin-2-one] | 0.1 to 1
8 | OCC(O)(CO)c1nnc(-c2ccccc2Nc2ccc(C(F)(F)F)cc2)o1 [Compound 201, 2-(5-(2-((4-(trifluoromethyl)phenyl)amino)phenyl)-1,3,4-oxadiazol-2-yl)propane-1,2,3-triol] | < 0.1
9 | CC(C)(C#N)Cc1nnc(-c2ccccc2Nc2ccc(C(F)(F)F)cc2)o1 [Compound 89, 2,2-dimethyl-3-(5-(2-((4-(trifluoromethyl)phenyl)amino)phenyl)-1,3,4-oxadiazol-2-yl)propanenitrile] | 0.1 to 1
10 | FC(F)(F)c1ccc(Nc2ccc(Br)cc2-c2nnc(C3CC3)o2)cc1 [Compound 204, 4-bromo-2-(5-cyclopropyl-1,3,4-oxadiazol-2-yl)-N-(4-(trifluoromethyl)phenyl)aniline] | 0.1 to 1
11 | NC(=O)NC1(c2nnc(-c3ccccc3Nc3ccc(C(F)(F)F)cc3)o2)CC1 [Compound 62, 1-(1-(5-(2-((4-(trifluoromethyl)phenyl)amino)phenyl)-1,3,4-oxadiazol-2-yl)cyclopropyl)urea] | 0.1 to 1
12 | C#CCOc1nnc(-c2ccccc2Nc2ccc(C(F)(F)F)cc2)o1 [Compound 83, 2-(5-(prop-2-yn-1-yloxy)-1,3,4-oxadiazol-2-yl)-N-(4-(trifluoromethyl)phenyl)aniline] | < 0.1

Same assay, conditions: Homo sapiens, HEK-293T; […]; 24-hr incubation; top concentration 3 μM; read-out: Firefly Luciferase IC50

Row | SMILES | IC50 [µM]
13 | CC(C)(C(=O)NCC#N)c1nnc(-c2ccccc2Nc2ccc(C(F)(F)F)cc2)o1 [Compound 110, N-(cyanomethyl)-2-methyl-2-(5-(2-((4-(trifluoromethyl)phenyl)amino)phenyl)-1,3,4-oxadiazol-2-yl)propanamide] | 1 to 5
14 | N#CCCNC(=O)c1nnc(-c2ccccc2Nc2ccc(C(F)(F)F)cc2)o1 [Compound 113, N-(2-cyanoethyl)-5-(2-((4-(trifluoromethyl)phenyl)amino)phenyl)-1,3,4-oxadiazole-2-carboxamide] | < 0.1
15 | OC1(c2nnc(-c3ccccc3Nc3ccc(C(F)(F)F)cc3)o2)CCC1 [Compound 54, 1-(5-(2-((4-(trifluoromethyl)phenyl)amino)phenyl)-1,3,4-oxadiazol-2-yl)cyclo butanol] | < 0.1
